Laboratory results as given in ChEMBL document CHEMBL1150739, “Plant antitumor agents, 26. Isolation, structure, and antitumor activity of alkaloids from Anopterus glandulosus” (1987).
Values after ≈ are worked out from the molar mass of the structure shown.

What was measured:
Type in all cases: functional
[1] = system: P388; test: In vivo antitumor activity against mouse P388 cells at 4.4 mg/kg relative to control
[2] = system: KB; test: Cytotoxicity against human KB cells; conditions: read-out: ED50 (the source's name)
[3] = system: P388; test: In vivo antitumor activity against mouse P388 cells at 1.5 mg/kg relative to control
[4] = system: P388; test: In vivo antitumor activity against mouse P388 cells at 3.5 mg/kg relative to control
[5] = system: P388; test: In vivo antitumor activity against mouse P388 cells at 6 mg/kg relative to control
[6] = system: P388; test: In vivo antitumor activity against mouse P388 cells at 13 mg/kg relative to control

C=C1C[C@]23[C@H]4[C@H]1[C@@H](OC(=O)/C(C)=C/C)[C@@H](OC(=O)/C(C)=C/C)[C@H]2[C@@]12C[C@@H](O)C[C@@](C)(CN(C)[C@H]41)[C@@]2(O)[C@@H](O)[C@@H]3O
T/C [1]: 140% | EC50 [2]: 0.001 µg/mL (≈ 0.00179 µM)

C=C1C[C@]23[C@H]4[C@H]1[C@@H](OC(=O)/C(C)=C/C)[C@@H](OC(=O)c1ccccc1)[C@H]2[C@@]12C[C@@H](O)C[C@@](C)(CN(C)[C@H]41)[C@@]2(O)[C@@H](O)[C@@H]3O
T/C [3]: 125% | EC50 [2]: 0.001 µg/mL (≈ 0.00173 µM)

C=C1C[C@]23[C@H]4[C@H]1[C@@H](OC(=O)/C(C)=C/C)[C@@H](OC(=O)/C(C)=C/CO)[C@H]2[C@@]12C[C@@H](O)C[C@@](C)(CN(C)[C@H]41)[C@@]2(O)[C@@H](O)[C@@H]3O
T/C [4]: 120% | EC50 [2]: 0.05 µg/mL (≈ 0.0872 µM)

C=C1C[C@@]23C[C@H](O)[C@]4(O)[C@@]5(C)C[C@H](O)C[C@@]46[C@@H]2[C@H](O)[C@H](OC(=O)/C(C)=C/C)[C@@H]1[C@H]3[C@H]6N(C)C5
T/C [5]: 127% | EC50 [2]: 1 µg/mL (≈ 2.18 µM)

C=C1C[C@@]23C[C@H](O)[C@]4(O)[C@@]5(C)C[C@H](O)C[C@@]46[C@@H]2[C@H](OC(=O)/C(C)=C/C)[C@H](OC(=O)/C(C)=C/C)[C@@H]1[C@H]3[C@H]6N(C)C5 [ANOPTERINE]
T/C [6]: 122% | EC50 [2]: 0.05 µg/mL (≈ 0.0923 µM)
